Measured values as given in paper PMC9232612, “A phase 1b randomised controlled trial of a glucagon-like peptide-1 and glucagon receptor dual agonist IBI362 (LY3305677) in Chinese patients with type 2 diabetes” (Nature Communications, 2022).
Where “and” joins values, the source holds several entries; their conditions need not be identical. Equal values may be shown once.

Tests used:
Format in all cases: in vivo, human
Body-mass index (BMI) = details: mean
Excerpt: (§1) Exploratory outcomes included change from baseline in body weight, waist circumference, body-mass index (BMI) and change in homeostatic model assessment of β-cell function (HOMA-β) and insulin resistance (HOMA-IR).

[1] = tested on: Chinese patients with T2D; assay: Treatment-emergent adverse events (MedDRA SOC/preferred term), 12-week once-weekly s.c. treatment plus 8-week safety follow-up, phase 1b
Procedure: The study included a 3-week screening period, a 12-week treatment period and an 8-week safety follow-up period. During the 12-week treatment period, IBI362 or placebo was subcutaneously administered once weekly with one of the three dose-escalation schedules: 1.0–2.0–3.0 mg for the 3.0 mg cohort, 1.5–3.0–4.5 mg for the 4.5 mg cohort and 2.0–4.0–6.0 mg for the 6.0 mg cohort (each dose level administered for 4 weeks). The 6.0 mg cohort started dosing after tolerability evaluation of 1.5 mg dosing in the 4.5 mg cohort. The internal unblinded safety monitoring group was responsible for the safety monitoring. Dulaglutide was subcutaneously administered once weekly at a fixed dose of 1.5 mg. Patients who were on metformin prior to the enrolment of this trial were required to continue their previous dose of metformin throughout the trial. Investigators and authorized study personnel in each centre recorded the study data into the electronic case report forms (eCRFs), which were reviewed and validated by clinical research associates. The data in the eCRFs were submitted to the electronic data capture database.
(§2) Primary outcomes of the study were the safety and tolerability of IBI362. Safety assessment included adverse events, physical examinations, laboratory tests (including lipase, amylase and calcitonin level measures), vital signs and 12-lead electrocardiogram. Adverse events were categorized according to the Medical Dictionary for Regulatory Activities system organ classes (SOCs) and preferred terms. Treatment-emergent adverse events (TEAEs) were monitored from the time of informed consent to the safety follow-up period. The severity of TEAEs (mild, moderate or severe) and the association between an event and the study drug were assessed by investigators based on pre-specified criteria.
Safety analyses were done in the safety population (defined as all patients who received at least one dose of the study treatment). Pharmacokinetic analyses were done in the pharmacokinetic population (defined as all patients who received at least one dose of IBI362 and had at least one valid plasma concentration assessment).

[2] = tested on: Chinese patients with T2D; assay: Glycated haemoglobin A1c (HbA1c); details: for Change from baseline to week 12 in HbA1c, single patients / HbA1c at week 12, single patients: each line a single patient; for Change from baseline in HbA1c, LS mean / Change from baseline in HbA1c, LS mean (SE) / HbA1c: ETD versus placebo, LS mean (90% CI): MMRM
Procedure: HbA1c (2200101, Bio-Rad, USA), blood glucose (05168791190, Roche Diagnostics, Germany), insulin (12017547122, Roche Diagnostics, Germany), C peptide (03184897190, Roche Diagnostics, Germany), total GLP-1 (GLP-1 [7–36] amide and its metabolite, GLP-1 [9–36] amide, 10-1278-01, Mercodia AB, Sweden) and OXM (AL-139, AnshLabs, USA) tests were performed according to the manufactures’ instruction manuals in a central laboratory (KingMed Diagnostics, Guangzhou, China). HbA1c was measured using a Bio-rad D-100 Haemoglobin Testing System (Bio-rad). Blood glucose was measured using a Roche Cobas c702 analyser (Roche Diagnostics). Insulin and C peptide were measured using a Roche […] analyser (Roche Diagnostics). GLP-1 and OXM were measured using a Tecan Infinite M Plex microplate reader (TECAN).
Standard non-compartmental pharmacokinetics methods were used to analyze IBI362 plasma concentration data using Pkanalix 2020R1 (Lixoft, Antony, France). Secondary efficacy outcomes included change from baseline to week 12 in HbA1c, fasting plasma glucose (FPG), fasting insulin levels, change from baseline to week 12 in post-mixed-meal tolerance test (post-MTT) glucose, insulin, C peptide, GLP-1 and OXM levels, as well as seven-point self-measured blood glucose (SMBG) profile.
The analyses for change from baseline in HbA1c, FPG, post-MTT glucose AUC0–4 h and body weight were performed using the mixed-effect model for repeated measures (MMRM) with least-squares means and standard error provided. The MMRM included the corresponding baseline value, treatment, visit and treatment-by-visit as fixed effects and patient as a random effect. Mean change or mean percent change from baseline were analysed using a restricted maximum likelihood (REML)‐based repeated measures approach in combination with the Newton Raphson Algorithm. The fix effect of visit was fitted as a repeated effect and an unstructured covariance matrix was used. In case of non-converge, matrix like Variance Components and Compound Symmetry will be tested in a subsequent order until model‐convergence is achieved. The Kenward-Roger degree of freedom was used in estimating fixed effects. No missing data imputation was conducted. For HbA1c, FPG and body weight, point estimate of treatment difference versus placebo and 90% CI were provided for each IBI362 dose group and the dulaglutide group, with nominal p values.

[3] = tested on: Chinese patients with T2D; assay: Homeostatic model assessment of β-cell function (HOMA-β); details: for Change from baseline to week 12 in HOMA-β, individual: single patients
Excerpt: as §1

[4] = tested on: Chinese patients with T2D; assay: Change from baseline in heart rate, standard 12-lead electrocardiogram
Excerpt: as §2
CFB in heart rate (beats/min),
Fig. S1: Change from baseline in heart rate over time.
Data are from standard 12-lead electrocardiogram, measured at 1 hour before each dose in the morning from week 0 to week 11, and 168 hours after the last dose (week 12). Data are plotted as means +/- SD. CFB = change from baseline; SD = standard deviation.Source data are provided as […]
(1 picture or pasted object on this page, not shown here)

Waist circumference = details: for Change from baseline to week 12 in waist circumference, individual: single patients
Excerpt: as §1

CC(C)C[C@H](NC(=O)[C@H](CC(C)C)NC(=O)[C@H](Cc1c[nH]c2ccccc12)NC(=O)[C@H](CCC(=O)O)NC(=O)[C@@H](NC(=O)[C@H](Cc1ccccc1)NC(=O)[C@H](CCC(=O)O)NC(=O)[C@H](CCCCNC(=O)COCCOCCNC(=O)COCCOCCNC(=O)CC[C@H](NC(=O)CCCCCCCCCCCCCCCCCCC(=O)O)C(=O)O)NC(=O)[C@H](C)NC(=O)[C@H](CCCCN)NC(=O)[C@H](CCCCN)NC(=O)[C@H](CCC(=O)O)NC(=O)[C@H](CC(=O)O)NC(=O)[C@H](CC(C)C)NC(=O)[C@H](Cc1ccc(O)cc1)NC(=O)[C@H](CCCCN)NC(=O)[C@H](CO)NC(=O)[C@H](Cc1ccc(O)cc1)NC(=O)[C@H](CC(=O)O)NC(=O)[C@H](CO)NC(=O)[C@@H](NC(=O)[C@H](Cc1ccccc1)NC(=O)[C@@H](NC(=O)CNC(=O)[C@H](CCC(N)=O)NC(=O)C(C)(C)NC(=O)[C@@H](N)Cc1c[nH]cn1)[C@@H](C)O)[C@@H](C)O)C(C)C)C(=O)N[C@@H](CCC(=O)O)C(=O)NCC(=O)NCC(=O)N1CCC[C@H]1C(=O)N[C@@H](CO)C(=O)N[C@@H](CO)C(=O)NCC(N)=O [IBI362]
Change from baseline to week 12 in BMI (Body-mass index (BMI); IBI362 3.0 mg): -0.38 kg/m2
Change from baseline to week 12 in BMI (Body-mass index (BMI); IBI362 4.5 mg): -1.25 kg/m2
Change from baseline to week 12 in BMI (Body-mass index (BMI); IBI362 6.0 mg): -1.36 kg/m2
median time to resolution of gastrointestinal adverse events (diarrhoea, nausea and vomiting) ([1]; 4.5 mg group, 10 events): 3.5 days
median time to resolution of gastrointestinal adverse events (diarrhoea, nausea and vomiting) ([1]; 6.0 mg group, 11 events): 4 days
tolerability ([1]; 3.0, 4.5 and 6.0 mg dose-escalation regimens): well tolerated
Percent of patients with change from baseline to week 12 in HbA1c <1.0% ([2]; 3.0 mg cohort, n=8): 0.0%
Percent of patients with change from baseline to week 12 in HbA1c ≥1.0% and <1.5% ([2]; 3.0 mg cohort, n=8): 37.5%
Percent of patients with change from baseline to week 12 in HbA1c ≥1.5% and <2.0% ([2]; 3.0 mg cohort, n=8): 25.0%
Percent of patients with change from baseline to week 12 in HbA1c ≥2.0% ([2]; 3.0 mg cohort, n=8): 25.0%
Percent of patients with change from baseline to week 12 in HbA1c <1.0% ([2]; 4.5 mg cohort, n=8): 0.0%
Percent of patients with change from baseline to week 12 in HbA1c ≥1.0% and <1.5% ([2]; 4.5 mg cohort, n=8): 12.5%
Percent of patients with change from baseline to week 12 in HbA1c ≥1.5% and <2.0% ([2]; 4.5 mg cohort, n=8): 25.0%
Percent of patients with change from baseline to week 12 in HbA1c ≥2.0% ([2]; 4.5 mg cohort, n=8): 37.5%
Percent of patients with change from baseline to week 12 in HbA1c <1.0% ([2]; 6.0 mg cohort, n=8): 25.0%
Percent of patients with change from baseline to week 12 in HbA1c ≥1.0% and <1.5% ([2]; 6.0 mg cohort, n=8): 0.0%
Percent of patients with change from baseline to week 12 in HbA1c ≥1.5% and <2.0% ([2]; 6.0 mg cohort, n=8): 37.5%
Percent of patients with change from baseline to week 12 in HbA1c ≥2.0% ([2]; 6.0 mg cohort, n=8): 37.5%
Percent of patients with change from baseline to week 12 in HbA1c <1.0% ([2]; all IBI362 cohorts, n=24): 8.3%
Percent of patients with change from baseline to week 12 in HbA1c ≥1.0% and <1.5% ([2]; all IBI362 cohorts, n=24): 16.7%
Percent of patients with change from baseline to week 12 in HbA1c ≥1.5% and <2.0% ([2]; all IBI362 cohorts, n=24): 29.2%
Percent of patients with change from baseline to week 12 in HbA1c ≥2.0% ([2]; all IBI362 cohorts, n=24): 33.3%
Change from baseline to week 12 in HbA1c, single patients ([2]; 3.0 mg cohort): -2.8% and -1.4% and -1.0% and -1.9% and -1.8% and -2.7% and -1.3%
HbA1c at week 12, single patients ([2]; 3.0 mg cohort): 6.4% and 6.1% and 8.6% and 7.3% and 6.8% and 6.7% and 7.4%
Change from baseline to week 12 in HbA1c, single patients ([2]; 4.5 mg cohort): -1.2% and -1.7% and -2.3% and -3.3% and -3.7%
HbA1c at week 12, single patients ([2]; 4.5 mg cohort): 6.1% and 6.3% and 5.7% and 6.9% and 6.8% and 6.0%
HbA1c at week 12, single patients ([2]; 6.0 mg cohort): 7.0% and 6.8% and 5.9% and 6.1% and 7.1% and 5.8% and 7.8%
Change from baseline in HbA1c, LS mean ([2]; week 4, 3.0 mg cohort, n=8): -0.38%
Change from baseline in HbA1c, LS mean ([2]; week 4, 4.5 mg cohort, n=8): -0.80%
Change from baseline in HbA1c, LS mean ([2]; week 4, 6.0 mg cohort, n=8): -0.61%
Change from baseline in HbA1c, LS mean ([2]; week 8, 3.0 mg cohort, n=8): -0.98%
Change from baseline in HbA1c, LS mean ([2]; week 8, 4.5 mg cohort, n=8): -1.58%
Change from baseline in HbA1c, LS mean ([2]; week 8, 6.0 mg cohort, n=8): -1.32%
Change from baseline in HbA1c, LS mean (SE) ([2]; week 12, 3.0 mg cohort, n=8): -1.46%
HbA1c: ETD versus placebo, LS mean (90% CI) ([2]; week 12, 3.0 mg cohort): −0.59%
Change from baseline in HbA1c, LS mean (SE) ([2]; week 12, 4.5 mg cohort, n=8): -2.23%
HbA1c: ETD versus placebo, LS mean (90% CI) ([2]; week 12, 4.5 mg cohort): −1.35%
Change from baseline in HbA1c, LS mean (SE) ([2]; week 12, 6.0 mg cohort, n=8): -1.66%
HbA1c: ETD versus placebo, LS mean (90% CI) ([2]; week 12, 6.0 mg cohort): −0.79%
patients achieving HbA1c level of 6.5% or lower ([2]; week 12, all IBI362 cohorts): nine
patients achieving ≥1.5% reductions in HbA1c from baseline ([2]; week 12, all IBI362 cohorts, n=24): 62.5%
Change from baseline to week 12 in HOMA-β, mean ([3]; 3.0 mg cohort, n=7): 9.2%
Change from baseline to week 12 in HOMA-β, mean ([3]; 4.5 mg cohort, n=5): 26.4%
Change from baseline to week 12 in HOMA-β, mean ([3]; 6.0 mg cohort, n=8): 21.0%
Change from baseline to week 12 in HOMA-β, individual ([3]; 3.0 mg cohort, n=7): -8.1% and 15.7% and 23.0% and -3.8% and 14.4% and 16.4% and 6.9%
Change from baseline to week 12 in HOMA-β, individual ([3]; 4.5 mg cohort, n=5): -9.6% and 82.4% and -0.3% and 47.8% and 11.6%
Change from baseline to week 12 in HOMA-β, individual ([3]; 6.0 mg cohort, n=8): -6.2% and 6.9% and 72.2% and 5.4% and 33.9% and 27.9% and -1.8% and 29.8%
heart rate, mean change from baseline (bound) ([4]; 3.0 mg cohort): < 10 beats per minute
heart rate, mean change from baseline (bound) ([4]; 6.0 mg cohort): < 15 beats per minute
heart rate increase (up to) ([4]; patients receiving IBI362): 10-15 beats per minute
Change from baseline to week 12 in waist circumference, mean (Waist circumference; 3.0 mg cohort, n=7): -0.5 cm
Change from baseline to week 12 in waist circumference, mean (Waist circumference; 4.5 mg cohort, n=5): -3.0 cm
Change from baseline to week 12 in waist circumference, individual (Waist circumference; 3.0 mg cohort, n=7): -4.4 cm and -0.2 cm and -4.0 cm and -1.0 cm and 3.7 cm and 3.5 cm
Change from baseline to week 12 in waist circumference, individual (Waist circumference; 4.5 mg cohort, n=5): -4.5 cm and -1.8 cm and -2.1 cm and -2.2 cm and -4.2 cm
Change from baseline to week 12 in waist circumference, individual (Waist circumference; 6.0 mg cohort, n=8): -4.7 cm and -2.5 cm and -1.0 cm and -7.5 cm and -5.1 cm and -13.3 cm and -1.5 cm and -2.9 cm
